Marks after values point to notes of the source that are not given here. Numbered stars: 1 amine (or outer) side, 2 acyl side, 3 side chain; on linkers, the order of the positions; unused ones are H or OH. Square brackets hold non-standard residues; d marks the D form. Side chains are listed from the residue outwards. Peptide text beside a SMILES is read from it. * marks the point of attachment. Isobutyryl(2-(3-CN-5-F-Ph)) = CC(C)(C(=O)*)c1cc(F)cc(C#N)c1; C20 diacid = O=C(O)CCCCCCCCCCCCCCCCCCC(=O)*; γGlu = O=C(O)[C@H](CCC(=O)[*:2])N[*:1]; AEEA = NCCOCCOCC(=O)O; Aib = CC(C)(N)C(=O)O; βAla = NCCC(=O)O
Assay: Phase 1 MAD Cohorts 6-8: safety and tolerability (TEAEs)
Type: in vivo, human
Details: N = 6
Text: The primary objective of this study is to determine the safety and tolerability of CT-388 in otherwise healthy overweight and obese adult participants when administered once weekly over 4 consecutive weeks with titrated dosing.
Safety and tolerability will be assessed by monitoring adverse events (AE) including local injection-site reactions, measuring vital signs and ECGs, and performing clinical laboratory blood and urine analyses.
• Cohort 6: One weekly dose titrated across 4 consecutive weeks with CT-388 doses of . . . • 5.0 mg at Day 1 • 5.0 mg at Day 8 • 5.0 mg at Day 15 • 7.5 mg at Day 22 • . . . or matched placebo administered subcutaneously in the abdomen • Cohort 7: One weekly dose titrated across 4 consecutive weeks with CT-388 doses of . . . • 5.0 mg at Day 1 • 5.0 mg at Day 8 • 8.0 mg at Day 15 • 12.0 mg at Day 22 • . . . or matched placebo administered subcutaneously in the abdomen • Cohort 8: One weekly dose titrated across 4 consecutive weeks with CT-388 doses of . . . • 5.0 mg at Day 1 • 8.0 mg at Day 8 • 12.0 mg at Day 15 • 12.0 mg at Day 22 • . . . or matched placebo administered subcutaneously in the abdomen (the third dose in Cohort 8 can be lowered to 8.0 mg based on tolerability data from Cohort 7) • Cohort 9: One weekly dose titrated across 4 consecutive weeks with CT-388 doses of . . . • 8.0 mg at Day 1 • 8.0 mg at Day 8 • 12.0 mg at Day 15 • 16.0 mg at Day 22 • . . . or matched placebo administered subcutaneously in the abdomen • Cohort 10: the following two dosing options are proposed in Table 3 below:
A Phase 1, randomized, placebo-controlled, double-blind study was conducted where single ascending doses (SAD; n=40; 0.5-7.5 mg) and multiple ascending doses (MAD; n=24; 5-12 mg via titration in 3 cohorts) were administered as described in Example 1 to overweight/obese adults.
The 24 patients in the MAD arm were divided into three cohorts (Cohorts 6, 7, and 8) as shown in Table 5 below (EOT: end of treatment).
Briefly, participants were randomized 3:1 (6 to CT-388, 2 to placebo, n=8 per cohort). CT-388 was administered once weekly at a dose of 5 mg at baseline in all cohorts and up-titrated up to 12 mg in Cohorts 7 & 8. Oral Glucose Tolerance Test (OGTT) with 75 g glucose solution was performed at baseline (Day −1) and on Day 23. Blood was collected at 15 min prior to OGTT, at OGTT start, and in 30-minute intervals until 120 minutes. Fasting glucose, insulin, C-peptide, and HOMA-IR were measured/calculated at baseline and on Day 23.

CC[C@H](C)[C@H](NC(=O)[C@H](CC(C)C)NC(=O)[C@H](Cc1c[nH]c2ccccc12)NC(=O)[C@H](CCC(N)=O)NC(=O)[C@@H](NC(=O)[C@H](Cc1ccccc1)NC(=O)[C@H](C)NC(=O)[C@H](CCCCNC(=O)COCCOCCNC(=O)COCCOCCNC(=O)CC[C@H](NC(=O)CCCCCCCCCCCCCCCCCCC(=O)O)C(=O)O)NC(=O)[C@H](CCC(N)=O)NC(=O)[C@H](C)NC(=O)[C@@H](NC(=O)[C@H](CCCCN)NC(=O)[C@H](CC(=O)O)NC(=O)[C@H](CC(C)C)NC(=O)C(C)(C)NC(=O)[C@@H](NC(=O)[C@H](CO)NC(=O)[C@H](Cc1ccc(O)cc1)NC(=O)[C@H](CC(=O)O)NC(=O)[C@H](CO)NC(=O)[C@@H](NC(=O)[C@H](Cc1ccccc1)NC(=O)[C@@H](NC(=O)CNC(=O)[C@H](CCC(=O)O)NC(=O)CCNC(=O)C(C)(C)c1cc(F)cc(C#N)c1)[C@@H](C)O)[C@@H](C)O)[C@@H](C)CC)[C@@H](C)CC)C(C)C)C(=O)N[C@@H](C)C(=O)NCC(=O)NCC(=O)N1CCC[C@H]1C(=O)N[C@@H](CO)C(=O)N[C@@H](CO)C(=O)NCC(=O)N[C@@H](C)C(=O)N1CCC[C@H]1C(=O)N1CCC[C@H]1C(=O)N1CCC[C@H]1C(=O)N[C@@H](CO)C(N)=O [CT-388] ({Isobutyryl(2-(3-CN-5-F-Ph))-βAla}-EGTFTSDYSI[Aib]LDKIAQK([AEEA-AEEA-γGlu-C20 diacid])AFVQWLIAGGPSSGAPPPS-NH2)
Abdominal Distention (Cohort 6, 5/5/5/7.5 mg SC QW): 3 n (%)
Constipation (Cohort 6, 5/5/5/7.5 mg SC QW): 3 n (%)
Constipation Grade 1 (Cohort 6, 5/5/5/7.5 mg SC QW): 3 n (%)
Constipation Grade 2 (Cohort 6, 5/5/5/7.5 mg SC QW): 0 n (%)
Constipation Grade 3 (Cohort 6, 5/5/5/7.5 mg SC QW): 0 n (%)
Diarrhea (Cohort 6, 5/5/5/7.5 mg SC QW): 2 n (%)
Diarrhea Grade 1 (Cohort 6, 5/5/5/7.5 mg SC QW): 2 n (%)
Diarrhea Grade 2 (Cohort 6, 5/5/5/7.5 mg SC QW): 0 n (%)
Diarrhea Grade 3 (Cohort 6, 5/5/5/7.5 mg SC QW): 0 n (%)
Drug-related TEAEs (Cohort 6, 5/5/5/7.5 mg SC QW): 33 # Events
Dyspepsia (Cohort 6, 5/5/5/7.5 mg SC QW): 1 n (%)
Eructation (Cohort 6, 5/5/5/7.5 mg SC QW): 0 n (%)
Fatal TEAEs (Cohort 6, 5/5/5/7.5 mg SC QW): 0 # Events
GI TEAEs (Total) (Cohort 6, 5/5/5/7.5 mg SC QW): 6 n (%)
Gastroesophageal Reflux Disease (Cohort 6, 5/5/5/7.5 mg SC QW): 0 n (%)
Nausea (Cohort 6, 5/5/5/7.5 mg SC QW): 6 n (%)
Nausea Grade 1 (Cohort 6, 5/5/5/7.5 mg SC QW): 4 n (%)
Nausea Grade 3 (Cohort 6, 5/5/5/7.5 mg SC QW): 0 n (%)
Serious TEAEs (Cohort 6, 5/5/5/7.5 mg SC QW): 0 # Events
Subjects discontinued due to TEAE (Cohort 6, 5/5/5/7.5 mg SC QW): 0 n (%)
Subjects with at least 1 TEAE (Cohort 6, 5/5/5/7.5 mg SC QW): 6 (100) n (%)
TEAE Severity: Grade 1 (Cohort 6, 5/5/5/7.5 mg SC QW): 6 (100) n (%)
TEAE Severity: Grade 2 (Cohort 6, 5/5/5/7.5 mg SC QW): 6 (100) n (%)
TEAE Severity: Grade 3 (Cohort 6, 5/5/5/7.5 mg SC QW): 0 n (%)
Vomiting (Cohort 6, 5/5/5/7.5 mg SC QW): 5 n (%)
Vomiting Grade 1 (Cohort 6, 5/5/5/7.5 mg SC QW): 2 n (%)
Vomiting Grade 2 (Cohort 6, 5/5/5/7.5 mg SC QW): 3 n (%)
Vomiting Grade 3 (Cohort 6, 5/5/5/7.5 mg SC QW): 0 n (%)
Nausea Grade 2 (Cohort 6, 5/5/5/7.5 mg SC QW, same subject experienced both mild and moderate events): 4 n (%)
Abdominal Distention (Cohort 7, 5/5/8/12 mg SC QW): 0 n (%)
Constipation (Cohort 7, 5/5/8/12 mg SC QW): 0 n (%)
Constipation Grade 1 (Cohort 7, 5/5/8/12 mg SC QW): 0 n (%)
Constipation Grade 2 (Cohort 7, 5/5/8/12 mg SC QW): 0 n (%)
Constipation Grade 3 (Cohort 7, 5/5/8/12 mg SC QW): 0 n (%)
Diarrhea (Cohort 7, 5/5/8/12 mg SC QW): 2 (33.3) n (%)
Diarrhea Grade 1 (Cohort 7, 5/5/8/12 mg SC QW): 2 (33.3) n (%)
Diarrhea Grade 2 (Cohort 7, 5/5/8/12 mg SC QW): 0 n (%)
Diarrhea Grade 3 (Cohort 7, 5/5/8/12 mg SC QW): 0 n (%)
Drug-related TEAEs (Cohort 7, 5/5/8/12 mg SC QW): 18 # Events
Dyspepsia (Cohort 7, 5/5/8/12 mg SC QW): 0 n (%)
Eructation (Cohort 7, 5/5/8/12 mg SC QW): 2 (33.3) n (%)
Fatal TEAEs (Cohort 7, 5/5/8/12 mg SC QW): 0 # Events
GI TEAEs (Total) (Cohort 7, 5/5/8/12 mg SC QW): 4 (66.7) n (%)
Gastroesophageal Reflux Disease (Cohort 7, 5/5/8/12 mg SC QW): 0 n (%)
Nausea (Cohort 7, 5/5/8/12 mg SC QW): 1 (16.7) n (%)

Reference: patent US20240390464A1, “Treatment of Adults With Overweight or Obesity With or Without Weight-Related Comorbidities” (Carmot Therapeutics Inc., priority 2023, published 2024)
